Data on one compound can be found in patent US20250235499A1, “ANTI-OVARIAN CANCER PHARMACEUTICAL COMPOSITION AND ACTION TARGET THEREOF” (Zhejiang Chinese Medical University, priority 2024, published 2025).

The subject of this experiment is CDK4, Cyclin D1, P21 in Hey cells. Kind of experiment: Expression of cell cycle related proteins in cells. Type of experiment: cell-based, human.
Where [1] appears, read: Hey OE-MCM2 cells (MCM2 overexpression), vs OE-MCM2 group.
Where [2] appears, read: Hey OE-NC cells (empty vector), vs OE-NC group.
Setting [3] is: Hey sh-MCM2 cells (MCM2 knockdown), vs sh-MCM2 group.
Setting [4] is: Hey sh-NC cells (empty vector), vs sh-NC group.

In the case of `COc1ccc(-c2coc3cc(O)ccc3c2=O)cc1O` [CA, calycosin], the “expression of CDK4” value is listed as “no significant change” under setting [1], “significantly decreased” under setting [2], “no significant change” under setting [3] and “significantly decreased” under setting [4]. For the same compound, the “expression of Cyclin D1” value is listed as “no significant change” under setting [1], “significantly decreased” under setting [2], “no significant change” under setting [3] and “significantly decreased” under setting [4]. The “expression of P21” value was “no significant change” under setting [1], “significantly increased” under setting [2], “no significant change” under setting [3] and “significantly increased” under setting [4].
